Data published in patent publication US10259779B2 (WAYNE STATE UNIVERSITY, priority 2016, dated 2019).

How the values were obtained:
[1] = target: T1, HDAC6 (Homo sapiens, UniProt Q9UBN7); test: ELISA-based HDAC activity assay, HDAC6; conditions: for HDAC6 fold selectivity HDAC1: HDAC6 over HDAC1; for HDAC6 fold selectivity HDAC1 / HDAC6 fold selectivity HDAC2 / HDAC6 fold selectivity HDAC3: calculated from IC50 values; for HDAC6 fold selectivity HDAC2: HDAC6 over HDAC2; for HDAC6 fold selectivity HDAC3: HDAC6 over HDAC3; for IC50: read-out: IC50 values (nM) HDAC6
T1 sequence (Q9UBN7 1-1215): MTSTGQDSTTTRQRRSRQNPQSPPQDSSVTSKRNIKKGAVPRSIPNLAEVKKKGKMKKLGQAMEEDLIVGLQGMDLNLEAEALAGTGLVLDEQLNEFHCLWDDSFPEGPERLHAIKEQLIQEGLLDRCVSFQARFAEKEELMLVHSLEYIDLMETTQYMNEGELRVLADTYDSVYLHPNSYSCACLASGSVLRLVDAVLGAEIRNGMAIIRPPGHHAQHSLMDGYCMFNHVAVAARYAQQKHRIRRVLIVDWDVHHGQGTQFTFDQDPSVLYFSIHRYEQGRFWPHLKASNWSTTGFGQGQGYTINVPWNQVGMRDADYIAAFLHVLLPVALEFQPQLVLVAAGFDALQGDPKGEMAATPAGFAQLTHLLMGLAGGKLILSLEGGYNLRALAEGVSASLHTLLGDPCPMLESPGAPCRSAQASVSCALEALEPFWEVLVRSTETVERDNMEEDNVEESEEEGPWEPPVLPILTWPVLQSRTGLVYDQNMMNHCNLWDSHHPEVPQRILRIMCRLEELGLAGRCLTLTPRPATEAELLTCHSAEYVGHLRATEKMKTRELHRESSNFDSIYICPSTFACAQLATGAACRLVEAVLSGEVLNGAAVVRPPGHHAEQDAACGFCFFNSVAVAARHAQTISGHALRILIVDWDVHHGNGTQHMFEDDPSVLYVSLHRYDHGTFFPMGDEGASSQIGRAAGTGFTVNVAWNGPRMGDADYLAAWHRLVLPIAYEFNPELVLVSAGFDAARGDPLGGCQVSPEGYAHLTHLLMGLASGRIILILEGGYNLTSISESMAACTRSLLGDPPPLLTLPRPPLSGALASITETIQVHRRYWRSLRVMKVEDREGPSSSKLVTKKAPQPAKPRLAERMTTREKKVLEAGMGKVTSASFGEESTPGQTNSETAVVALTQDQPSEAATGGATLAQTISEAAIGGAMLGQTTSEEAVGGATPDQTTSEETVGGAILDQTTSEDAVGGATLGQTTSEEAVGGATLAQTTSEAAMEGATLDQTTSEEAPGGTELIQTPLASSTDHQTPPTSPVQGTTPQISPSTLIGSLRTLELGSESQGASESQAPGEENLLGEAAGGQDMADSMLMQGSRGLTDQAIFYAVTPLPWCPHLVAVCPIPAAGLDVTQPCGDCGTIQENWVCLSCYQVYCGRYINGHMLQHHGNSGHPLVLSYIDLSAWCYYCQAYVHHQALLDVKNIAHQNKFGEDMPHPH

[2] = target: HDAC2 (Homo sapiens, UniProt Q92769); test: ELISA-based HDAC activity assay, HDAC2; conditions: for IC50: read-out: IC50 values (nM) HDAC2
[3] = target: T2, recombinant HDAC8 (Homo sapiens, UniProt Q9BY41); test: Recombinant HDAC8 inhibition (HDAC-Glo); format: biochemical; conditions: for activity at 0.1 µM: 1.0 × 10^−7 M; for activity at 0.2 µM: 2.0 × 10^−7 M; for activity at 0.05 µM: 5.0 × 10^−8 M; for HDAC8 fold selectivity HDAC1: HDAC8 over HDAC1; for HDAC8 fold selectivity HDAC1 / HDAC8 fold selectivity HDAC2 / HDAC8 fold selectivity HDAC3: calculated from IC50 values; for HDAC8 fold selectivity HDAC2: HDAC8 over HDAC2; for HDAC8 fold selectivity HDAC3: HDAC8 over HDAC3
T2 construct: purchased BPS Bioscience
T2 sequence (Q9BY41 1-377): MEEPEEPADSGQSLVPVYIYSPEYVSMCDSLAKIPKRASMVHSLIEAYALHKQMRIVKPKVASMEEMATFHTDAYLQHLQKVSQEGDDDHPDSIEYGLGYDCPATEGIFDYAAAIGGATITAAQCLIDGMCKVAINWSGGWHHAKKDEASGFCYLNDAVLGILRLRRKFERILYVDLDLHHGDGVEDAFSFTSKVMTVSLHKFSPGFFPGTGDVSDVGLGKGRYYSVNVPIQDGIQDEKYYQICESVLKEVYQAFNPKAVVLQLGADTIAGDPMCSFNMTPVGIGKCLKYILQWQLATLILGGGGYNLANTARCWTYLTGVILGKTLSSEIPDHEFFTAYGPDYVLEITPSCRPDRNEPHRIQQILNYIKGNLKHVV
Experimental: Inhibitory activity with HDAC8 was measured using the following procedure. In a half area 96-well white opaque plate, recombinant HDAC8 (75 ng, BPS Bioscience) was incubated in HDAC-Glo™ buffer (39 μL) with inhibitor in DMSO (1 μL), or DMSO alone (1 μL) as a control, for 15 minutes at room temperature. HDAC-Glo™ reagent (10 μL) was added to each reaction and incubated for 30 min at room temperature. Luminescent signal was measured 30 minutes after adding the substrate reagent using a Geniosplus Fluorimeter (Tecan) at optimal gain. To determine IC50, the luminescent signal was first background corrected with the signal from a background control reaction where no HDAC8 enzyme was added.

[4] = target: HDAC3 (Homo sapiens, UniProt O15379); test: ELISA-based HDAC activity assay, HDAC3; conditions: for IC50: read-out: IC50 values (nM) HDAC3
[5] = target: HDAC1 (Homo sapiens, UniProt Q13547); test: ELISA-based HDAC activity assay, HDAC1; conditions: for IC50: read-out: IC50 values (nM) HDAC1
[6] = tested on: HDAC proteins in HeLa cell lysates; test: Global HDAC inhibition with HeLa cell lysates (HDAC-Glo I/II substrate); format: biochemical; conditions: for Deacetylase activity (%): Hela Lysate
Experimental: HDAC activity was measured using the commercially available HDAC-Glo™ I/II substrate (Promega).
Lysates were prepared according to the reported procedure.^28 HeLa-S3 cells (purchased from Biovest) were lysed in lysis buffer (1×10^9 cells in 10 mL lysis buffer; 50 mM Tris-HCl, pH 8.0, 10% glycerol, 150 mM NaCl, 0.5% Triton X-100, and 1× protease inhibitor cocktail (GenDEPOT)) with rotation at 4° C. for 30 min. Cell debris was removed by centrifugation at 12000 rpm at 4° C. for 30 min. Protein concentration of the supernatant was determined using Bio-Rad protein assay (BioRad, Bradford reagent). Lysates were stored at −80° C.
To measure global HDAC inhibition, HeLa cell lysates (1 μg total protein) were mixed with HDAC-Glo™ buffer in polystyrene 96-well half area white plate (Corning) to a final volume of 12 μL, followed by addition of inhibitors in DMSO (0.5 μL) and incubation for 15 min at room temperature without rocking. An uninhibited control reaction was also included that contained DMSO (0.5 μL). Finally, deacetylase activity was measured using the HDAC-Glo™ assay kit (Promega) as per the manufacturer's protocol. Specifically, the HDAC-Glo™ substrate (1 mL) and developer ([…]) were first premixed to form the HDAC-Glo™ reagents. Then, to monitor deacetylase activity, HDAC-Glo™ reagent (5 μL) and HDAC-Glo™ buffer (7.5 μL) were added to each well (25 μL total volume) and incubated for 35 min at room temperature without rocking. The deacetylase activity was measured as luminescent signal using a GeniosPlus Fluorimeter (Tecan) at optimal gain. The concentrations of inhibitors reported in the dose-dependent studies (Table 2) are final concentrations after addition of HDAC-Glo™ reagent HDAC-Glo™ buffer.

[7] = read-out: Deacetylase activity (%) HDAC6
[8] = read-out: Deacetylase activity (%) HDAC2
[9] = read-out: Deacetylase activity (%) HDAC8
[10] = read-out: Deacetylase activity (%) HDAC3
[11] = read-out: Deacetylase activity (%) HDAC1

Chain of HDAC1 (Q13547 whole entry): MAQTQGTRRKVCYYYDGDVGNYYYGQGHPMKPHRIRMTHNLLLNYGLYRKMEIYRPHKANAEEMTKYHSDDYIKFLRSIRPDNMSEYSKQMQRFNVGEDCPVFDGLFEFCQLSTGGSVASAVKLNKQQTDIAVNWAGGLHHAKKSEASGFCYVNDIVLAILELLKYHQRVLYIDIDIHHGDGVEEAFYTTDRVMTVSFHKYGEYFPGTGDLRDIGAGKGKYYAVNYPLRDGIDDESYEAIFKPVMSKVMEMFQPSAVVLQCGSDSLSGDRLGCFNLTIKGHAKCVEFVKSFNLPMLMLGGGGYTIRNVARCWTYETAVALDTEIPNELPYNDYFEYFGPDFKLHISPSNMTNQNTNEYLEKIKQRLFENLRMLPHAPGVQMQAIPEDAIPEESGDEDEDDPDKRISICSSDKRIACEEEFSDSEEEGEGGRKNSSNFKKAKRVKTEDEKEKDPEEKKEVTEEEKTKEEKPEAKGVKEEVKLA
Chain of HDAC2 (Q92769 whole entry): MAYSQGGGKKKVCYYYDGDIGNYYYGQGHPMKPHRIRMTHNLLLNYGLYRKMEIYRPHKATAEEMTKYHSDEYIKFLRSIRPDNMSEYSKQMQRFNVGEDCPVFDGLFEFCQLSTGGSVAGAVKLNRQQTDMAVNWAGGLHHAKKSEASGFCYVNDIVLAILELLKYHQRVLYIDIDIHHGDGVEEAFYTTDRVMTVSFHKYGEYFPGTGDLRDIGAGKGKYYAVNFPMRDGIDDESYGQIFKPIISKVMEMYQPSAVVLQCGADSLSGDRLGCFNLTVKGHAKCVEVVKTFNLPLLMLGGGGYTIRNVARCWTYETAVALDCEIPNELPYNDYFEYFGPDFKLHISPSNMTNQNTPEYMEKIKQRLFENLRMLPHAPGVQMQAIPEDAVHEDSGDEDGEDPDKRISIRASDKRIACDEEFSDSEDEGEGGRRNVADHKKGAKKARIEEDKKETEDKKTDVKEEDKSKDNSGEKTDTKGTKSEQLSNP
Chain of HDAC3 (O15379 whole entry): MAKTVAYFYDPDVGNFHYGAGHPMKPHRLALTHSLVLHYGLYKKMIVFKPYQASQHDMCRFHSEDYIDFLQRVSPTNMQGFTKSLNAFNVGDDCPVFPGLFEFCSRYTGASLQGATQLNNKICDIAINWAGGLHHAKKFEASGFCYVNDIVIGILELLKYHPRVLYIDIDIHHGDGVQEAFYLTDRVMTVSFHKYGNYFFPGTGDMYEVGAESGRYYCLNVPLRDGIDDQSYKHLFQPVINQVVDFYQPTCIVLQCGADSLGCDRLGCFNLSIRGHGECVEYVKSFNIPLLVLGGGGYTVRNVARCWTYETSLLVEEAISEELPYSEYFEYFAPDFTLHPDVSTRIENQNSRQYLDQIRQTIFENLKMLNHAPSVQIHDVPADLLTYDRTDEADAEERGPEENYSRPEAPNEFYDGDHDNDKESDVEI
Chain of HDAC3 (Q9Y618 whole entry partner): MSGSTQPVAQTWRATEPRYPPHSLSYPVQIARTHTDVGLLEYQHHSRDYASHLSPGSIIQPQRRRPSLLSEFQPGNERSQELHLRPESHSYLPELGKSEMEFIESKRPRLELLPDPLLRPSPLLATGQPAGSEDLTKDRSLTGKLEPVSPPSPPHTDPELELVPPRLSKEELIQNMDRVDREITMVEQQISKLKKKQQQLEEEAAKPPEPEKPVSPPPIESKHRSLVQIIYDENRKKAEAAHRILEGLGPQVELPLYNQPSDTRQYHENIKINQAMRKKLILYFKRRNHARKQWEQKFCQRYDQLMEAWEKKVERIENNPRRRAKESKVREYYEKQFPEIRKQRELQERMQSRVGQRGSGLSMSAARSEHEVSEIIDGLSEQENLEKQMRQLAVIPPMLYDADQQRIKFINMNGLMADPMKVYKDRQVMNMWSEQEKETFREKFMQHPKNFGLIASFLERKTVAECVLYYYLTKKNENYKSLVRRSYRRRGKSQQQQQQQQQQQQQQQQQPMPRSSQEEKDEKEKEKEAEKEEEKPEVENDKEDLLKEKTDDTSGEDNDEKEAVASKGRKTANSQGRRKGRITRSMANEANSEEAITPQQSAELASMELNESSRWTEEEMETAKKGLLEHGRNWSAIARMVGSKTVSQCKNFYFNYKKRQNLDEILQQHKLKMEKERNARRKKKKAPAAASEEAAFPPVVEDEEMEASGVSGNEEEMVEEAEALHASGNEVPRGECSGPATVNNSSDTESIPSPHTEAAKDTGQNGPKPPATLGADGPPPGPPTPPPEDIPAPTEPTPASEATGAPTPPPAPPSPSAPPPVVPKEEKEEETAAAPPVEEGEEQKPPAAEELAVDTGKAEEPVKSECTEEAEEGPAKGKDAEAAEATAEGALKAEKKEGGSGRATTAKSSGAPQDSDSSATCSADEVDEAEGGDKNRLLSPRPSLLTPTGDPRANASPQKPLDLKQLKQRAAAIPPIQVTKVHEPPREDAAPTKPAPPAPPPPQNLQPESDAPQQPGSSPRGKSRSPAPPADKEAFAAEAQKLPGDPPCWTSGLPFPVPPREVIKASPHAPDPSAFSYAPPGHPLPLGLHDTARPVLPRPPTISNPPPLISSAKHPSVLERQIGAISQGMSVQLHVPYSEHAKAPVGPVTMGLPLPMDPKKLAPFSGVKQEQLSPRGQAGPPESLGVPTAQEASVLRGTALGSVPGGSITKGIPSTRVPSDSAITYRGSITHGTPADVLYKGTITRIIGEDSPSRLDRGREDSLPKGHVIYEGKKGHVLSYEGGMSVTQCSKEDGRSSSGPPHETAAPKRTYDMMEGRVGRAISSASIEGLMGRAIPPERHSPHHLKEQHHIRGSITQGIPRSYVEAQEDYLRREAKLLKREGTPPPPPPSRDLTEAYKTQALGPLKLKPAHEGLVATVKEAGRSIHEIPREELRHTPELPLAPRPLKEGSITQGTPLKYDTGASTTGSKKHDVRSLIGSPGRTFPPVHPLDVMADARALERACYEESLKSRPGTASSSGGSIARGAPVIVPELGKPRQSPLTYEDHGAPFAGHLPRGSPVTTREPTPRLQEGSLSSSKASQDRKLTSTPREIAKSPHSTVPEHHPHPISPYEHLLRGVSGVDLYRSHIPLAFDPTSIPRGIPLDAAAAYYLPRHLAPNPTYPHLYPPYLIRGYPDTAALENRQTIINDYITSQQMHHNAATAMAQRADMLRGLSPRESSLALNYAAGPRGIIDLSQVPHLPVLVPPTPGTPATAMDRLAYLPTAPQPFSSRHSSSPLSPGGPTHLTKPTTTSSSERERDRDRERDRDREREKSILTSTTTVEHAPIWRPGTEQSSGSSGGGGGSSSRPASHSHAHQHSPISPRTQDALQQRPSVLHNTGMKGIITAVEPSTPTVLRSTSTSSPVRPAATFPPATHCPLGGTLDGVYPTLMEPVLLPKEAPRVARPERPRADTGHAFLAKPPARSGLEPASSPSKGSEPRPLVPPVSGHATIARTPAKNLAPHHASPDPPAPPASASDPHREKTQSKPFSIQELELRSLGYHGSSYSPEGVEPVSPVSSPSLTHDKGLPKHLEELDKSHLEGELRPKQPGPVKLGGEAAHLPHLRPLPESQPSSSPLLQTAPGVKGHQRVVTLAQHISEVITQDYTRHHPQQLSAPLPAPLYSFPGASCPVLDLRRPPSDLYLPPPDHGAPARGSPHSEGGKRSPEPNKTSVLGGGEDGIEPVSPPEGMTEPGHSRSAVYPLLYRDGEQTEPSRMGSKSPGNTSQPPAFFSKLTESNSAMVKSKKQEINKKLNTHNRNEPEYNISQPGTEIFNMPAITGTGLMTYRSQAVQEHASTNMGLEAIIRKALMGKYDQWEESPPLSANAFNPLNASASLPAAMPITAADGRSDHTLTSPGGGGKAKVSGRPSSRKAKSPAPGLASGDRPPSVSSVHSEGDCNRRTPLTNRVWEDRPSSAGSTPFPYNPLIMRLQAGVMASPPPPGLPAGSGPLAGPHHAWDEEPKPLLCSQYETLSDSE

SMILES: O=C(CC[C@H](CCCC(=O)Nc1ccccc1)Cc1ccccc1)NO [(S)-1f, (S)-4-benzyl-N^1-hydroxy-N^8-phenyloctanediamide]
- HDAC6 fold selectivity HDAC1 [1]: 520 fold
- HDAC6 fold selectivity HDAC2 [1]: 750 fold
- HDAC6 fold selectivity HDAC3 [1]: 560 fold
- activity at 0.05 µM [1, 7]: 64 ± 4%
- activity at 0.1 µM [1, 7]: 48 ± 7%
- activity at 0.2 µM [1, 7]: 37 ± 7%
- activity at 0.4 µM [1, 7]: 17 ± 6%
- activity at 0.8 µM [1, 7]: 16 ± 6%
- IC50 [1]: 95 ± 9 nM
- activity at 10 µM [2, 8]: 87 ± 5%
- activity at 20 µM [2, 8]: 74 ± 3%
- activity at 40 µM [2, 8]: 56 ± 3%
- activity at 80 µM [2, 8]: 37 ± 6%
- activity at 160 µM [2, 8]: 22 ± 2%
- IC50 [2]: 51000 nM
- IC50 [3]: 150 nM
- activity at 0.1 µM [3, 9]: 61 ± 3%
- activity at 0.2 µM [3, 9]: 42 ± 2%
- activity at 0.4 µM ([3]; 4.0 × 10^−7 M, read-out: Deacetylase activity (%) HDAC8): 28 ± 1%
- activity at 0.05 µM [3, 9]: 75 ± 6%
- activity at 0.8 µM ([3]; 8.0 × 10^−7 M, read-out: Deacetylase activity (%) HDAC8): 19 ± 1%
- HDAC8 fold selectivity HDAC1 [3]: 930 fold
- HDAC8 fold selectivity HDAC2 [3]: 1300 fold
- HDAC8 fold selectivity HDAC3 [3]: 1000 fold
- activity at 10 µM [4, 10]: 76 ± 5%
- activity at 20 µM [4, 10]: 67 ± 4%
- activity at 40 µM [4, 10]: 48 ± 2%
- activity at 80 µM [4, 10]: 33 ± 4%
- activity at 160 µM [4, 10]: 15 ± 2%
- IC50 [4]: 37000 nM
- activity at 10 µM [5, 11]: 84 ± 7%
- activity at 20 µM [5, 11]: 68 ± 3%
- activity at 40 µM [5, 11]: 50 ± 3%
- activity at 80 µM [5, 11]: 32 ± 2%
- activity at 160 µM [5, 11]: 17 ± 1%
- IC50 [5]: 40000 nM

SMILES: O=C(CC[C@@H](CCCC(=O)Nc1ccccc1)Cc1ccccc1)NO [(R)-1f, (R)-4-benzyl-N^1-hydroxy-N^8-phenyloctanediamide]
- HDAC6 fold selectivity HDAC1 [1]: 420 fold
- HDAC6 fold selectivity HDAC2 [1]: 540 fold
- HDAC6 fold selectivity HDAC3 [1]: 390 fold
- activity at 0.0125 µM [1, 7]: 67 ± 4%
- activity at 0.05 µM [1, 7]: 57 ± 5%
- activity at 0.1 µM [1, 7]: 37 ± 6%
- activity at 0.2 µM [1, 7]: 26 ± 4%
- activity at […] [1, 7]: 59 ± 8%
- IC50 [1]: 48 nM
- activity at 5 µM [2, 8]: 96 ± 1%
- activity at 10 µM [2, 8]: 83 ± 5%
- activity at 20 µM [2, 8]: 71 ± 4%
- activity at 40 µM [2, 8]: 43 ± 5%
- activity at 80 µM [2, 8]: 29 ± 1%
- IC50 [2]: 36000 nM
- IC50 [3]: 27 nM
- activity at 0.1 µM [3, 9]: 22 ± 1%
- activity at 0.0125 µM ([3]; 1.25 × 10^−8 M, read-out: Deacetylase activity (%) HDAC8): 64 ± 2%
- activity at 0.2 µM [3, 9]: 16 ± 1%
- activity at […] ([3]; 2.5 × 10^−8 M, read-out: Deacetylase activity (%) HDAC8): 56 ± 4%
- activity at 0.05 µM [3, 9]: 37 ± 3%
- HDAC8 fold selectivity HDAC1 [3]: 260 fold
- HDAC8 fold selectivity HDAC2 [3]: 330 fold
- HDAC8 fold selectivity HDAC3 [3]: 240 fold
- activity at 5 µM [4, 10]: 89 ± 2%
- activity at 10 µM [4, 10]: 77 ± 2%
- activity at 20 µM [4, 10]: 54 ± 4%
- activity at 40 µM [4, 10]: 39 ± 2%
- activity at 80 µM [4, 10]: 25 ± 2%
- IC50 [4]: 27000 nM
- activity at 5 µM [5, 11]: 88 ± 4%
- activity at 10 µM [5, 11]: 72 ± 3%
- activity at 20 µM [5, 11]: 53 ± 6%
- activity at 40 µM [5, 11]: 38 ± 3%
- activity at 80 µM [5, 11]: 24 ± 2%
- IC50 [5]: 25000 nM

SMILES: CCCCCCC(CCCC(=O)Nc1ccccc1)CCC(=O)NO (single isomer, unassigned) [Compound 1e, 4-hexyl-N^1-hydroxy-N^8-phenyloctanediamide]
- Deacetylase activity (%) ([6]; 1.0 × 10^−4 M): 32 ± 1%
- Deacetylase activity (%) ([6]; 1.25 × 10^−5 M): 104 ± 1%
- Deacetylase activity (%) ([6]; 2.0 × 10^−4 M): 15 ± 1%
- Deacetylase activity (%) ([6]; 5.0 × 10^−5 M): 57 ± 2%
- IC50 ([6]; HeLa cell lysates): 65 ± 6 µM
- Deacetylase activity (%) ([6]; […] 10^−5 M): 88 ± 1%

SMILES: CC(CCCC(=O)Nc1ccccc1)CCC(=O)NO (racemic) [Compound 1a, N^1-hydroxy-4-methyl-N^8-phenyloctanediamide]
- Deacetylase activity (%) ([6]; 1.0 × 10^−5 M): 17 ± 2%
- Deacetylase activity (%) ([6]; 1.25 × 10^−6 M): 79 ± 3%
- Deacetylase activity (%) ([6]; 5.0 × 10^−6 M): 38 ± 4%
- Deacetylase activity (%) ([6]; 6.25 × 10^−6 M): 91 ± 2%
- IC50 ([6]; HeLa cell lysates): 3.3 µM
- fold less potent than SAHA ([6]; HeLa cell lysates, compared to parent SAHA): 18 fold
- Deacetylase activity (%) ([6]; […] 10^−6 M): 60 ± 3%
